Data reported in US6852756B1, “Use of pleuromutilin derivatives for transdermal treatment of bacterial diseases” (Novartis Animal Health US Inc., priority 1999, dated 2005).

Assays:
[1] = Preliminary test: transdermal study in pigs (tissue, bile and plasma concentrations after cutaneous administration); assay type: in vivo; conditions: 2 × 25 mg/kg of body weight
Description: 1. Preliminary Test: Transdermal Study in Pigs [table] The test solution is administered cutaneously to the skin of the animal and the […], lung, skin, bile and plasma concentrations are determined. For determining the concentrations (μg/ml of plasma or g of tissue) a calibration curve of valnemulin in plasma is used. These investigations are not meant to determine the exact values but to provide only a yes or no answer.

[2] = Assessment of the systemic absorption of valnemulin after cutaneous administration (footbath / foot spray) in cattle; HPLC of blood and milk; assay type: in vivo; conditions: lactating cows, footbath Day 1 and Day 3, foot spray Day 5, 10% valnemulin solution
Text: (§1) 2. Assessment of the Systemic Absorption of Valnemulin-Type of Compounds After Cutaneous Administration in Cattle Type of administration: Footbath or directly as spray Test Protocol: Four lactating adult cows with clinical signs of Bovine Digital Dermatitis are recruited to the study. Blood and milk samples are taken before, and at intervals after application of a water/ethanol solution containing 10% valnemulin either as a footbath, or directly by spraying the feet. Test Formulation: Water/ethanol solution containing 10% valnemulin [table] Footbath solutions are prepared fresh each treatment day. A calculated quantity of test product is added to an estimated volume of water, which is placed in the footbath beforehand. The cows are driven individually into the footbath and made to stand there with their feet covered by footbath solution for 2 minutes. Foot spraying involves the use of a hand operated spraying device into which 100 ml of the test product are placed. Said 100 ml are distributed between the feet of each cow and applied directly to the lower leg areas and around and underneath each foot. Valnemulin content of samples is determined by a validated High Performance Liquid Chromatography (HPLC) method. Day 1; a.m. milking samples (50 ml/sample) are taken before the first treatment, thus serving as control measurements. […]

[3] = tested on: Bovine Digital Dermatitis; assay: Footbath / foot spray treatment of lactating cows with clinical signs of Bovine Digital Dermatitis (footrot); assay type: in vivo, cattle; conditions: four lactating cows; footbath Day 1 and Day 3, foot spray Day 5; 10% valnemulin solution; after one week
Description: as §1, with “Disease: Footrot” for “2. Assessment of the Systemic Absorption of Valnemulin-Type of Compounds After Cutaneous Administration in Cattle”, “feet.” for “feet. Test Formulation: Water/ethanol solution containing 10% valnemulin [table]”, “foot.” for “foot. Valnemulin content of samples is determined by a validated High Performance Liquid Chromatography (HPLC) method. Day 1; a.m. milking samples (50 ml/sample) are taken before the first treatment, thus serving as control measurements.”

[4] = Additional experiments: topical application as a spot on, tissue amounts, pigs; assay type: in vivo
[5] = Additional experiments: topical application as a spot on, tissue amounts, cattle; assay type: in vivo
[6] = Animal No 1, water solution containing 10% valnemulin
[7] = Animal No 2, 40% ethanol/water solution containing 10% valnemulin

SMILES: C=C[C@]1(C)C[C@@H](OC(=O)CSC(C)(C)CNC(=O)[C@H](N)C(C)C)[C@]2(C)[C@H](C)CC[C@]3(CCC(=O)[C@H]32)[C@@H](C)[C@@H]1O [valnemulin]
- bile concentration [1, 6]: 0.155 μg/ml of plasma or g of tissue
- liver concentration [1, 6]: 0.175 μg/ml of plasma or g of tissue
- lung concentration [1, 6]: 0.916 μg/ml of plasma or g of tissue
- plasma concentration 3 hours after 1st application [1, 6]: <limit of detection
- plasma concentration 6 hours after 1st application [1, 6]: <limit of detection
- skin concentration [1, 6]: 39.056 μg/ml of plasma or g of tissue
- bile concentration [1, 7]: <limit of detection
- liver concentration [1, 7]: 0.132 μg/ml of plasma or g of tissue
- lung concentration [1, 7]: 0.353 μg/ml of plasma or g of tissue
- plasma concentration 3 hours after 1st application [1, 7]: <limit of detection
- plasma concentration 6 hours after 1st application [1, 7]: 0.07 μg/ml of plasma or g of tissue
- skin concentration [1, 7]: 6.965 μg/ml of plasma or g of tissue
- valnemulin concentrations in blood samples [2]: found in most milk and blood samples
- valnemulin concentrations in milk samples [2]: found in most milk and blood samples
- symptoms of footrot after treatment [3]: none of the treated cows shows any symptoms of footrot
- amounts of active ingredient found in tissues (brain, liver, muscle, spleen, lung) [4]: fairly high amounts
- amounts of active ingredient found in tissues (brain, liver, muscle, spleen, lung) [5]: fairly high amounts
